This is an account of results in PubChem BioAssay AID1159557 (GlaxoSmithKline (GSK), 2015).

SMILES strings stand for the structures. Activity calls are given as the source filed them. The rule behind the calls is not given here. A value given as a limit tells only on which side of the number the result lay.

This assay relates to Trypanosoma brucei growth inhibition. The assay can be described thus: trypanosome proliferation inhibitors (AID 1159557).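 Note: parasites exposed to compound for 48 h before the resazurin readout.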
For `Cc1ccc(NC(=O)c2ccnc(N3CCCC3)c2)cc1-c1cc(C(N)=O)ccc1C`, the IC50 is 100 nM. For the compound `Cc1nn(-c2nc(N)nc(-c3ccccn3)n2)c(N)c1-c1ccccc1`, the half-inhibitory concentration (IC50) was 2000 nM. `N#Cc1cc([N+](=O)[O-])ccc1NC1CCCCCC1`: the IC50 is 2500 nM. The same measure for `CCC(=O)Nc1ccc(C(=O)Nc2ccccc2-c2ccccc2)cc1`: 20000 nM.

As to `COc1ccc(CN2CCCCC2c2nc(-c3cccnc3)no2)cc1` (stereo unspecified), the IC50 is > 40000 nM (inactive). In the case of `COc1cc(NC(=O)Nc2cccc(CNC(=O)OC3CCCCC3)c2)ccc1-c1cnco1`, the IC50 was 250 nM.

As for `CC(=O)Nc1ccc(-c2cnc(N)c(-c3nc4ccc(F)cc4[nH]3)c2)cc1`, the IC50 was 630 nM.

On to `O=C(Nc1ccc(C(F)(F)F)cc1)Nc1cccc([N+](=O)[O-])c1`, for which the IC50 is 2000 nM. As for `C[C@@H](Oc1cc(-n2cnc3ccc(O[C@H]4CCNC4)cc32)sc1C(N)=O)c1ccccc1Cl`, the IC50 is 250 nM. Regarding `COc1ccc2ncc(=O)n(CCN3CCC(NCc4ccc(-c5cccs5)cc4)CC3)c2n1`, the concentration for half-maximal inhibition (IC50) was 3200 nM. Under `Cc1ccc2c(c1)-c1onc(C(=O)N3CCCCC3c3cccnc3)c1CO2` (stereo unspecified) stands 40000 nM. Regarding `CCOc1cnn(C)c(=O)c1Nc1ccc(C(=O)NCc2ccc(F)cc2)cc1`, the IC50 was > 40000 nM (inactive).

Regarding `CC(C)(C)C(Cn1ccnc1)NC(=O)c1ccc2nc(C3CC3)oc2c1` (stereo unspecified), the IC50 is > 40000 nM (inactive).

For the compound `Cc1ccc2sc(NC(=O)Cn3cnc([N+](=O)[O-])n3)nc2c1`, the IC50 is 25000 nM. For `Cc1nc2nc(C)c(Cc3ccc(C(C)C)cc3)c(=O)n2[nH]1`, the IC50 is > 40000 nM (inactive).

Take `O=c1[nH]c(NCCCNCc2cc(Br)cc(Br)c2)nc2ccsc12`: the IC50 is 100 nM.

`COc1ccc(Nc2nc(-c3ccccn3)cs2)c(OC)c1`: the IC50 is 20000 nM. Under `Cc1cc2cncn2c(C2CCCCN2C(=O)c2cccs2)n1` (stereo unspecified) stands > 40000 nM (inactive). For `CN(Cc1ccc(C(N)=O)cc1)C(c1ccc(F)cc1)c1cccnc1` (stereo unspecified), the IC50 was > 40000 nM (inactive). Regarding `O=C(Cc1ccc2c(c1)CCC2)Nc1n[nH]c(-c2ccccn2)n1`, the 50% inhibitory concentration (IC50) was 20000 nM. Under `CCN(CC)S(=O)(=O)c1ccc(OC)c(NC(=O)c2ccc([N+](=O)[O-])s2)c1` stands 400 nM.
